Test results: article PMC5011688, “Polysaccharide enhances Radix Saposhnikoviae efficacy through inhibiting chromones decomposition in intestinal tract” (Scientific Reports, 2016)
Where two headings read alike, the source gives them in different places. Each block holds one compound with its values, some of them ahead of it.

How the values were obtained:
[1] = Metabolism study of PGCN and GML in simulated intestinal fluid (SIF); format: in vitro ADME; conditions: SIF pH 6.8, 37 °C, 2 h
Procedure: (§1) Simulated gastric fluid (SGF, pH 1.2) and simulated intestinal fluid (SIF, pH 6.8) were prepared based on Chinese Pharmacopeia (2010) and have been depicted previously. 100 μg PGCN or GML was added to 4 ml of either SGF or SIF to yield 4 reaction systems, i.e., PGCN/SGF (213.47 nM), PGCN/SIF (213.47 nM), GML/SGF (220.99 nM), GML/SIF (220.99 nM), respectively. Polysaccharides extracted in RS were added to these 4 reaction systems in accordance with the actual chromone-polysaccharide proportion, with each reaction further became three sub-systems, i.e., 0 polysaccharide/chrome, 1/2 polysaccharide/chromone, and pan-polysaccharide/chromone. Meanwhile, these 12 systems were allowed to react at 37 °C. Following 2 h, the reaction was stopped by 100 °C boiling for 10 min. Subsequently, these systems were evaporated to dryness and the residue was reconstituted in 1 ml methanol. After centrifugation at 3,000 rpm for 10 min, the supernatant was collected and used for HPLC analysis.

[2] = Metabolism study of PGCN and GML in simulated gastric fluid (SGF); format: in vitro ADME; conditions: SGF pH 1.2, 37 °C, 2 h
Procedure: as §1

Caco-2 cell monolayers = experiment: Caco-2 bidirectional transport assay of cimifugin; format: in vitro ADME; conditions: for effect on flux/transport of cimifugin across Caco-2 monolayers: pretreatment or co-application with cimifugin, A→B flux, similar for B→A
Procedure: Caco-2 cells were obtained from the American Type Culture Collection (ATCC). […] For the permeability test, cells were seeded in transwell supports with polycarbonate membrane (0.4 μm, 1.12 cm^2, Corning Costar) at a density of 6 × 10^4 cells/cm^2. The integrity of the monolayers was tested by measuring the transepithelial electrical resistance (TEER) before and after every experiment. Only monolayers with TEER >200 Ω/cm^2 were used. Test compounds in transport buffer were added to the donor compartments of either apical (A → B) or basolateral (B → A) wells of the Insert System and incubated at 37 °C. Samples were collected at 0, 30, 60, 90, 120, and 150 min time points and analyzed for HPLC analysis of content of cimifugin as described above.

[3] = Transport of chromones across semi-permeable membrane (dialysis bag) with or without RS polysaccharide; format: physicochemical; conditions: 6 h; for total chromone: inside plus outside the membrane; for total chromone / Fluid inside the semi-permeable membrane, chromone / Fluid outside the semi-permeable membrane, chromone: pH 7.8, 37 °C; for Fluid inside the semi-permeable membrane, chromone / Fluid outside the semi-permeable membrane, chromone: sum of PGCN and cimifugin
Procedure: Dialysis bags made by semi-permeable membrane materials were used in this analysis. ~3 cm long dialysis bags were first processed as the following procedures in succession: 1) boiled for 5 min in distilled water; 2) rinsed by 60 °C water for 2 min; 3) rinsed by small intestine buffer for 2 min; 4) rinsed by small intestine buffer for 2 min; 5) immersed in buffer at 4 °C. After 12 h, these processed dialysis bags were tied tightly at one end to form a dialysis bag. 1 ml small intestine buffer (pH 7.8) containing cimifugin, PGCN, cimifugin + polysaccharide, or PGCN + polysaccharide was added into this bag and a glass bead was put in to keep this bag vertical. When the other end was tied (an air bubble was retained), this dialysis bag was suspended in 15 ml small intestine buffer. This system was left to stand for 6 h in 37 °C water bath and chromone content inside and outside of this semi-permeable membrane was measured by HPLC analysis.

[4] = Pharmacokinetic measurement of chromone (cimifugin in rat plasma after oral chromone extracts); format: in vivo, Sprague-Dawley rats; conditions: for Tmax: male, Sprague-Dawley, rat, plasma, po, 4 g crude drug/kg, oral chromone extracts 4 g crude drug/kg for 5 days, plasma HPLC
Procedure: To explore the influence of RS polysaccharide on the pharmacokinetics of chromones, 2.11 g, 1.05 g RS polysaccharide, and 2.11 g glucuronic acid were added to the three aliquots of chromone components, with one aliquot left as control. Thus, totally four test compounds were obtained, including chromone/pan-polysaccharide (CP), chromone/1/2polysaccharide (CHP), chromone/glucuronic acid (CG), and chromone, which served as control. Forty male Sprague-Dawley rats were used in this experiment. They were randomly divided into 4 groups, each consisting of 10 rats. The rats in these four groups were orally administered with CP, CHP, CG and chromones at the dose of 4 g crude drug (equivalent to 10 ml RS extracts) per kg body weight, respectively for five consecutive days. After the final drug delivery of day 5 (at 0.5, 1, 1.5, 2, 3, 5, 8, 12, 16, and 24 h/day), rats were anesthetized by ether inhalation and rat blood samples were obtained from the orbit vein and centrifuged immediately at 3,000 rpm for 10 min to yield plasma. Each plasma sample (100 μl) was mixed with 20 μl of 70% perchloric acid and vortexed and centrifuged at 3,000 rpm for 10 min. The supernatant were subjected to 0.45 μm microporous membrane and the filtrate was collected for subsequent high performance liquid chromatography (HPLC) analysis. Chromatographic separation and analysis using an L-2000 Elite HPLC system has been previously reported. Briefly, the separation of the analytes were performed on a Kromasil C18 column (200 mm × 4.6 mm i.d., particle size 5 μm), equipped with a Shim-pack security guard column at a column temperature of 25 °C. The binary mobile phase consisted of methanol and water. A flow rate of 1.0 ml/min with a gradient elution program as follows: 40–45% methanol at 0–5 min; 45–60% methanol at 5–10 min; 60–80% methanol at 10–15 min; 80–95% methanol at 15–20 min; 95–40% methanol at 20–30 min. The injection volume was 20 μl and detection wavelength was kept at 254 nm.

[5] = Transformation of cimifugin in small intestine enzyme solution; format: in vitro ADME, Sprague-Dawley rats; conditions: 38 °C
Procedure: Small intestine segment was taken from ten 12 h-fasting male Sprague-Dawley rats. The intestine tissue was first frozen at −80 °C for 12 h, and then ground and centrifuged at 10,000 rpm for 10 min. The supernatant constituted the enzyme solution used in the experiment. To explore the influence of RS polysaccharide on the metabolism of cimifugin, three groups were designed: control group containing 40 μg cimifugin in 1.2 ml enzyme solution; RS polysaccharide/cimifugin group containing 40 μg cimifugin and 8.7 mg RS polysaccharide in 1.2 ml enzyme solution; glucuronic acid/cimifugin group containing 40 μg cimifugin and 8.7 mg glucuronic acid in 1.2 ml enzyme solution. These groups were put in 38 °C water bath for reaction, while samples were taken at 15 and 30 min. After deproteinization by methanol, these samples were centrifuged at 10,000 rpm for 10 min. Subsequently, the supernatant was collected and analyzed for HPLC analysis as described above.

[6] = small intestine buffer pH 7.8, 37 °C, mean ± SD, n = 10
[7] = apical application (A→B), A: cimifugin, B: polysaccharide, C: LY335979, D: troleandomycin, mean ± SD, n = 10
[8] = basolateral application (B→A), A: cimifugin, B: polysaccharide, C: LY335979, D: troleandomycin, mean ± SD, n = 10

Structure (SMILES): COc1c2c(cc3oc(C)cc(=O)c13)OC(C(C)(C)OC1OC(CO)C(O)C(O)C1O)C2 [GML, 4′-O-β-D-glucosyl-5-O-methylvisamminol]
- transformation in SIF (in words) [1]: underwent no change
- HPLC peak area, GML ([1]; mean ± SD, n = 10): 1369720 ± 112480
- transformation in SGF (in words) [2]: a little GML was converted into PGCN
- HPLC peak area, GML ([2]; mean ± SD, n = 10): 1369608 ± 83550

Structure (SMILES): Cl.Cl.Cl.O[C@@H](COc1cccc2ncccc12)CN1CCN([C@@H]2c3ccccc3[C@@H]3[C@H](c4ccccc42)C3(F)F)CC1 [LY335979, Zosuquidar Trihydrochloride, reference compound]
- effect on flux/transport of cimifugin across Caco-2 monolayers (Caco-2 cell monolayers): not affected

Structure (SMILES): COc1c2c(cc3oc(COC4OC(CO)C(O)C(O)C4O)cc(=O)c13)OC(C(C)(C)O)C2 (centres unmarked) [PGCN, prime-O-glucosylcimifugin]
- transformation in SIF (in words) [1]: an overwhelmingly large amount of PGCN was transformed into cimifugin
- HPLC peak area, PGCN ([1]; mean ± SD, n = 10): 5159 ± 1238
- total chromone [3]: 105.0 ± 0.1 nmol
- Fluid inside the semi-permeable membrane, PGCN [3, 6]: 15.2 ± 0.5 nmol
- Fluid outside the semi-permeable membrane, PGCN [3, 6]: 89.8 ± 0.4 nmol
- Fluid inside the semi-permeable membrane, chromone [3]: 15.2 ± 0.5 nmol
- Fluid outside the semi-permeable membrane, chromone [3]: 89.8 ± 0.4 nmol
- transformation in SGF (in words) [2]: a small amount of PCGN was converted into cimifugin

Structure (SMILES): COc1c2c(cc3oc(CO)cc(=O)c13)O[C@H](C(C)(C)O)C2 [cimifugin]
- Basolateral content of cimifugin, 30 min (Caco-2 cell monolayers; [7]): 15.21 ± 2.34 ng
- Basolateral content of cimifugin, 60 min (Caco-2 cell monolayers; [7]): 30.85 ± 3.64 ng
- Basolateral content of cimifugin, 90 min (Caco-2 cell monolayers; [7]): 143.92 ± 12.32 ng
- Basolateral content of cimifugin, 120 min (Caco-2 cell monolayers; [7]): 236.01 ± 22.86 ng
- Basolateral content of cimifugin, 150 min (Caco-2 cell monolayers; [7]): 201.33 ± 15.32 ng
- Apical content of cimifugin, 30 min (Caco-2 cell monolayers; [8]): 26.87 ± 1.54 ng
- Apical content of cimifugin, 60 min (Caco-2 cell monolayers; [8]): 50.45 ± 2.27 ng
- Apical content of cimifugin, 90 min (Caco-2 cell monolayers; [8]): 234.35 ± 11.36 ng
- Apical content of cimifugin, 120 min (Caco-2 cell monolayers; [8]): 354.24 ± 15.47 ng
- Apical content of cimifugin, 150 min (Caco-2 cell monolayers; [8]): 289.46 ± 15.45 ng
- Tmax ([4]; read-out: Tmax of cimifugin in rat plasma (first peak of double-peak curve)): 1.5 h
- Tmax ([4]; read-out: Tmax of cimifugin in rat plasma (second peak of double-peak curve)): 8 h
- detection in plasma of chromone treated rats (HPLC qualitative analysis) ([4]; whole process of the experiment, data not shown): only cimifugin was detected
- stability in small intestine enzyme solutions (in words) ([5]; rat small intestine enzyme solution): underwent degradation to a great extent
- total chromone [3]: 161.7 ± 0.5 nmol
- Fluid inside the semi-permeable membrane, cimifugin [3, 6]: 18.1 ± 0.6 nmol
- Fluid outside the semi-permeable membrane, cimifugin [3, 6]: 143.6 ± 0.1 nmol
- Fluid inside the semi-permeable membrane, chromone [3]: 18.1 ± 0.6 nmol
- Fluid outside the semi-permeable membrane, chromone [3]: 143.6 ± 0.1 nmol

Second part, led by results:

- effect on absorption of chromone in the form of cimifugin (AUC at 3 h and later) ([4]; co-administered orally with chromone extract, rat plasma): did not affect
Structure (SMILES): O=C[C@H](O)[C@@H](O)[C@H](O)[C@H](O)C(=O)O [glucuronic acid, Glucuronic acid, reference compound]
- effect on cimifugin degradation / transformation into PGCN in small intestine enzyme solutions (in words) ([5]; added to cimifugin in enzyme solution): did not produce any effect on cimifugin transformation

- effect on flux/transport of cimifugin across Caco-2 monolayers (Caco-2 cell monolayers): significantly enhanced
Structure (SMILES): CO[C@H]1C[C@H](O[C@H]2[C@H](C)[C@@H](O[C@@H]3O[C@H](C)C[C@H](N(C)C)[C@H]3OC(C)=O)[C@@H](C)C[C@@]3(CO3)C(=O)[C@H](C)[C@@H](OC(C)=O)[C@@H](C)[C@@H](C)OC(=O)[C@@H]2C)O[C@@H](C)[C@@H]1OC(C)=O [troleandomycin, Troleandomycin, reference compound]
